Where two headings read alike, the source gives them in different places. No end group written: not given here.
B1: NB—Pd: HER2 nanobody-HRGDH fusion complexed with Pd after incubation with Pd(OAc)2 at molar ratio 1:1 (conjugate)
VHH: QVQLQESGGGSVQAGGSLKLTCAASGYIFNSCGMGWYRQSPGRERELVSRISGDGDTWHKESVKGRFTISQDNVKKTLYLQMNSLKPEDTAVYFCAVCYNLETYWGQGTQVTVSSGGGGSHRGDHENLYFQSHHHHHH

Legend:
[1] = system: SK-BR-3 cells; assay: Prodrug-into-drug conversion, extracellular, SK-BR-3; type: cell-based; conditions: for catalytic conversion of ProPTX into paclitaxel in cell culture: catalyst 1.4 μM + ProPTX 0.3 μM, SK-BR-3; for cell death: in combination with ProPTX 0.3 μM, SK-BR-3, 5 days, PrestoBlue
Experimental: Error bars: LSD from n=2. Significance was determined by one-way analysis of variance (ANOVA): ^nsP>0.05, *P<0.05.
Error bars: ±SD from n=3.
Extracellular conversion. […] The cells treated with PTX and ProPTX at 0.3 μM were used as positive and negative controls, respectively. After 5d, PrestoBlue cell viability reagent (10% v/v) was added to each well and the plate was incubated for 90 min. […] Experiments were performed in triplicates.
SK-BR-3 cells were seeded and incubated with a solution of Pd(OAc)2 or Pd-peptide (Pd-HRGDHC) in combination with either DMSO or ProPTX (0.3 μM). After 5 days, Presto blue cell viability reagent was added and fluorescence emission was detected using a multilabel plate reader.
After 5d, Presto blue cell viability reagent was added to each well and fluorescence emission was detected using a multilabel fluorescence reader.

[2] = system: SK-BR-3 breast cancer cells; assay: Dose-response of paclitaxel versus paclitaxel prodrug in SK-BR-3 cells; type: cell-based; conditions: Homo sapiens, semilog dose-response
Text: This vast drop of anticancer activity highlights the essential role of the C2′-OH of PTX for binding its target.

[3] = Catalytic screening of metallopeptides (ProRes to resorufin fluorescence); conditions: Pd-peptides 10 μM, ProRes 100 μM, PBS, 37° C., 24 h
Experimental: Catalytic screening of metallopeptides. Metallopeptides, either mixed or as individual Pd-peptides (Pd-HRGDHC (SEQ ID NO: 6) or Pd-LLEYLKR (SEQ ID NO: 7) (10 μM) were incubated with Pd-labile off/on sensor O-propargyl-resorufin (ProRes)^2 (100 μM) in PBS (500 μL). The mixtures were shaken at 700 rpm and 37° C. in a Thermomixer and reactions were monitored after 24 h using a FLUOstar Omega multilabel reader (Ex/Em: 540/590 nm).

[4] = system: SK-BR-3 cells; conditions: read-out: EC50 (cell viability), SK-BR-3, day 5, PrestoBlue
Experimental: Dose-response curves of Pd (Pd(OAc)2) and Pd-peptide (HRGDHC-Pd) at different concentrations (100-1 μM) in HER2+ breast cancer cell line SK-BR-3. Cell viability was measured on day 5 using PrestoBlue reagent. Error bars: ±SD from n=3.
Cell viability was measured on day 5 using PrestoBlue reagent. Error bars: ±SD from n=3.
Cells were seeded in a 96-well plate format (at 2,000 cells per well) and incubated for 24 h before treatment. […] Untreated cells were incubated with DMSO (0.1% v/v). After 5d of incubation, cell viability was determined as described above. All conditions were normalised to the untreated cells (100%) and curves fitted using GraphPad Prism using a sigmoidal variable slope curve. Experiments were performed in triplicates.
Presto blue reagent was added to quantitatively measure viability by fluorescence detection and EC50 values were calculated by plotting dose-response curves.

[5] = Fluorogenic catalysis of ProRes in PBS versus serum (10% FBS in PBS); conditions: 37° C., 24 h
Experimental: (a) Catalytic deprotection of the propargylated dye (ProRes, 100 μM) occurs in the presence of either Pd(OAc)2 (Pd, 1.4 μM), or in the presence of NB-HRGDH-Pd (NB—Pd, 1.4 μM). The catalysis was performed at physiological conditions (pH 7.4, 37° C.) in PBS or in serum (10% FBS in PBS). The fluorescence measurements were normalised against the value of fluorescence after catalysis in PBS (100%) and corrected by the fluorescence of the product, Resorufin, in PBS and serum, respectively. (b) Scheme representing the catalysis of ProRes by NB—Pd in the presence of serum and the catalytic deactivation of Pd(OAc)2 by serum.
In solution. […] The mixtures were shaken at 700 rpm and 37° C. in a Thermomixer, and reactions were monitored after 24 h using a FLUOstar Omega multilabel reader (Ex/Em: 540/590 nm). […] The fluorescence measurements were normalised against the value of fluorescence after catalysis in PBS (100%) and corrected by the fluorescence of the product, Resorufin, in PBS and serum, respectively.
Pd(OAc)2 and Pd-peptide (Pd-HRGDHC) were incubated with the previously described sensor (ProRes) in PBS or in 10% FBS—PBS at 37° C. in a Thermomixer, and reactions were monitored after 24 h using a multilabel reader. Fluorescence increment was observed after catalysis. […]

[6] = system: HER2 negative cells MCF-7; assay: Prodrug-into-drug conversion, intracellular (1 h incubation, wash), MCF-7; type: cell-based; conditions: NB—Pd 1 h, washed, then ProPTX 0.3 μM, 5 days
Experimental: Cell viability was measured on day 5 using PrestoBlue reagent. Error bars: LSD from n=3. Significance was determined by one-way analysis of variance (ANOVA): ^nsP>0.05, *P<0.05, **P<0.01, ****P<0.0001.
Intracellular conversion. SK-BR-3 and MCF-7 cells were seeded in a 96-well plate format (at 2,000 cells per well) and incubated for 24 h before treatment. Each well was then replaced with a solution of NB—Pd (20 μg/mL, 1.4 μM) in culture media and incubated for 1 h. Cells were then washed with PBS and fresh media containing either DMSO (0.1% v/v) or ProPTX (0.3 μM) was added. The cells treated with PTX and ProPTX at 0.3 μM were used as positive and negative controls, respectively. After 5d, PrestoBlue cell viability reagent (10% v/v) was added to each well and the plate was incubated for 90 min. Fluorescence emission was detected using a FLUOstar Omega multilabel reader (Ex/Em: 540/590 nm). Experiments were performed in triplicates.
SK-BR-3 and MCF-7 cells (HER2 positive and negative respectively) were seeded and incubated with a solution of NB—Pd for 1 h. Cells were then washed with PBS and fresh media containing either DMSO or ProPTX (0.3 μM) was added. After 5 days, Presto blue cell viability reagent was added and fluorescence emission was detected. […] Results are to be found in FIG. 6.

| Molecule | catalytic conversion of ProPTX into paclitaxel in cell culture [1] | catalytic activity (conversion of ProRes into fluorescent resorufin) [3] | cell death [1] [%] | other results |
| --- | --- | --- | --- | --- |
| C1=C\CC/C=C\CC/1.[Cl][Pd][Cl] [Pd(Cod)Cl2, reference compound] | poor catalytic efficiency | – | – | – |
| CC(=O)O[C@H]1C(=O)[C@@]2(C)[C@H]([C@H](OC(=O)c3ccccc3)[C@]3(O)C[C@H](OC(=O)[C@H](O)[C@@H](NC(=O)c4ccccc4)c4ccccc4)C(C)=C1C3(C)C)[C@]1(OC(C)=O)CO[C@@H]1C[C@@H]2O [PTX, paclitaxel] | – | – | – | EC50 [2]: 0.0018 µM |
| LLEYLKR (also: Pd complex) [reference compound] | – | does not show any catalytic activity | – | – |
| CC(=O)[O-].CC(=O)[O-].[Pd+2] [Pd(OAc)2, reference compound] | Non-significant catalysis | – | – | EC50 [4]: 23 µM; EC50 ([4]; listed as Pd): 39 µM; catalytic activity in serum ([5]; 10% FBS-PBS): lost its catalytic properties |
| HRGDHC-OH [Pd-peptide] | converting the prodrug | show catalytic activity | > 40 | catalytic activity in serum relative to catalytic activity in PBS ([5]; 10% FBS-PBS vs PBS): at least 18% |
| B1 | – | – | > 70 | effect on cell viability [6]: no effect |
